Measured values: patent US8470771B2, “Method and medicament for inhibiting the infection of influenza virus” (priority 2007, dated 2013)
Marks after values point to notes of the source that are not given here.

Assays:
[1] = test system: QH-WSN virus (avian influenza virus H5N1); conditions: for IC50: QH-WSN virus (avian influenza virus); for Inhibitory rates (%) of QH-WSN: QH-WSN virus (avian influenza virus, 200 μM)
[2] = test system: WSN virus (human influenza virus H1N1); conditions: for IC50: WSN virus (human influenza virus); for Inhibitory rates (%) of WSN: WSN virus (human influenza virus, 100 μM)
[3] = test system: JX virus (human influenza virus H3N2); conditions: for IC50: JX virus (human influenza virus); for Inhibitory rates (%) of JX: JX virus (human influenza virus, 200 μM)
[4] = test system: 3 subtypes of virus i.e. H5N1, H6N1 and H9N2; conditions: read-out: 50% effect concentration (EC50); cited from earlier work
influenza virus = type: cell-based

Compound | Inhibitory rates (%) of QH-WSN [1] | Inhibitory rates (%) of WSN [2] | Inhibitory rates (%) of JX [3] | further results
CC[C@H](C)[C@H](NC(=O)[C@H](CCCCN)NC(=O)[C@H](CCC(N)=O)NC(=O)[C@@H](NC(=O)[C@H](CO)NC(=O)[C@H](CCC(=O)O)NC(=O)[C@@H](N)CCCCN)[C@@H](C)O)C(=O)N[C@H](C(=O)N[C@@H](CC(=O)O)C(=O)NCC(=O)N[C@H](C(=O)N[C@H](C(=O)N[C@@H](CC(N)=O)C(=O)N[C@@H](CCCCN)C(=O)N[C@H](C(=O)N[C@@H](CC(N)=O)C(=O)N[C@@H](CO)C(=O)N[C@H](C(=O)N[C@H](C(=O)N[C@@H](CC(=O)O)C(=O)N[C@@H](CCCCN)C(=O)O)[C@@H](C)CC)[C@@H](C)CC)C(C)C)[C@@H](C)O)C(C)C)[C@@H](C)CC [HR1-1] | – | – | – | IC50 [1]: 32.7 ± 6.5 µM; IC50 [2]: 29.3 ± 5.7 µM; IC50 [3]: 38.2 ± 7.8 µM
CC[C@H](C)[C@H](NC(=O)[C@H](C)NC(=O)[C@H](CCCCN)NC(=O)[C@H](CCC(N)=O)NC(=O)[C@@H](NC(=O)[C@H](CO)NC(=O)[C@H](CCC(=O)O)NC(=O)[C@@H](N)CCCCN)[C@@H](C)O)C(=O)N[C@@H](CC(=O)O)C(=O)NCC(=O)N[C@H](C(=O)N[C@H](C(=O)N[C@@H](C)C(=O)N[C@@H](C)C(=O)N[C@@H](C)C(=O)N[C@@H](C)C(=O)N[C@@H](CC(N)=O)C(=O)N[C@@H](CCCCN)C(=O)N[C@H](C(=O)N[C@@H](CC(N)=O)C(=O)N[C@@H](CO)C(=O)N[C@H](C(=O)N[C@H](C(=O)N[C@@H](CC(=O)O)C(=O)N[C@@H](CCCCN)C(=O)O)[C@@H](C)CC)[C@@H](C)CC)C(C)C)[C@@H](C)O)C(C)C [HR1-2] | – | – | – | IC50 [1]: 104 ± 28.6 µM; IC50 [2]: 110 ± 28.2 µM; IC50 [3]: 112 ± 19.5 µM
CC[C@H](C)[C@H](NC(=O)[C@H](CCCNC(=N)N)NC(=O)[C@@H](N)CCCNC(=N)N)C(=O)N[C@@H](CCC(=O)O)C(=O)N[C@@H](CC(N)=O)C(=O)N[C@@H](CC(C)C)C(=O)N[C@@H](CC(N)=O)C(=O)N[C@@H](CCCCN)C(=O)N[C@@H](CCCCN)C(=O)N[C@@H](CCSC)C(=O)N[C@@H](CCC(=O)O)C(=O)N[C@@H](CC(=O)O)C(=O)NCC(=O)N[C@@H](Cc1ccccc1)C(=O)N[C@@H](CC(C)C)C(=O)N[C@@H](CC(=O)O)C(=O)N[C@H](C(=O)N[C@@H](Cc1c[nH]c2ccccc12)C(=O)N[C@H](C(=O)N[C@@H](Cc1ccc(O)cc1)C(=O)O)[C@@H](C)O)C(C)C [HR2A] | 56.9* % | 42.0** % | 51.4* % | –
CSCC[C@H](NC(=O)[C@H](CC(C)C)NC(=O)[C@@H](NC(=O)[C@H](CC(C)C)NC(=O)[C@H](CC(C)C)NC(=O)[C@H](CCC(=O)O)NC(=O)[C@H](C)NC(=O)[C@@H](N)CC(N)=O)C(C)C)C(=O)N[C@@H](CCC(=O)O)C(=O)N[C@@H](CC(N)=O)C(=O)N[C@@H](CCC(=O)O)C(=O)N[C@@H](CCCNC(=N)N)C(=O)N[C@H](C(=O)N[C@@H](CC(C)C)C(=O)N[C@@H](CC(=O)O)C(=O)N[C@@H](Cc1ccccc1)C(=O)N[C@@H](Cc1c[nH]cn1)C(=O)N[C@@H](CC(=O)O)C(=O)N[C@@H](CO)C(=O)N[C@@H](CC(N)=O)C(=O)N[C@H](C(=O)N[C@@H](CCCCN)C(=O)N[C@@H](CC(N)=O)C(=O)O)C(C)C)[C@@H](C)O [HR2B] | 63.8* % | 43.0** % | 15.2* % | –
CC(C)C[C@H](NC(=O)[C@H](CCCNC(=N)N)NC(=O)[C@@H](NC(=O)[C@H](CCCCN)NC(=O)[C@H](CC(=O)O)NC(=O)[C@H](Cc1ccc(O)cc1)NC(=O)[C@H](CC(C)C)NC(=O)[C@H](CC(N)=O)NC(=O)[C@H](CCCCN)NC(=O)[C@@H](NC(=O)[C@H](CC(N)=O)NC(=O)[C@H](CO)NC(=O)[C@H](CC(=O)O)NC(=O)[C@H](Cc1c[nH]cn1)NC(=O)[C@@H](N)Cc1ccccc1)C(C)C)C(C)C)C(=O)N[C@@H](CCC(N)=O)C(=O)O [HR2C] | 53.1* % | 29.6** % | 17.1* % | –
CC(=O)N[C@H]1[C@H]([C@H](O)[C@H](O)CO)OC(C(=O)O)=C[C@@H]1N=C(N)N [Zanamivir] | – | – | – | EC50 [4]: 8.5 to 14 µM
KLPDDFMGCV | – | – | – | inhibition of the infection of influenza virus (influenza virus): did not inhibit the infection of influenza virus
